Measurements reported in patent US6992079B2, “Substituted 11-phenyl-dibenzazepine compounds useful for the treatment or prevention of diseases characterized by abnormal cell proliferation” (President Fellows of Harvard College, priority 1997, dated 2006).
Read-outs that look alike come from different tables or passages of the source.

Assays:
[1] = tested on: H460 large cell lung carcinoma; assay: Mouse xenograft tumor growth; assay type: in vivo, CD-1 nude mice
[2] = tested on: A2058 metastatic melanoma; assay: Mouse xenograft tumor growth; assay type: in vivo, CD-1 nude mice
Experimental: NCI-A2058 human melanoma cell line was grown as monolayer culture in Minimum essential medium (D-MEM) supplemented with 10% fetal bovine serum (FBS), 0.1 mM non-essential amino acid, 1.0 mM sodium pyruvate, 100U/ml penicillin, 100 μg/ml streptomycin and 0.25 μg/ml amphotericin B and L-alanyl-1-glutamine (2 mM) at 37° C. in an atmosphere of 5% CO2 in air. The tumor cells were routinely subcultured twice weekly by trypsin-EDTA treatment. The cells were harvested from subconfluent logarithmically growing culture by treatment with typsin-EDTA and counted for tumor inoculation.
An acclimation period of at least 7 days were allowed between animal receipt and commence of tumor inoculation. When the female CD-1 nude mice were more than 6-7 weeks of age (20-25 g), each mouse was subcutaneously injected with 5.0×10^6 NCI-A2058 human melanoma cells in 0.1 ml of PBS solution at the right flank of the mice to induce tumor growth.

[3] = tested on: CCRF-CEM; assay: In-Vitro Testing SRB panel: Leukemia; assay type: cell-based; details: 48 h
[4] = tested on: MOLT-4; assay: In-Vitro Testing SRB panel: Leukemia; assay type: cell-based; details: MOLT-4, 48 h
[5] = tested on: NCI-H226; assay type: cell-based; details: NCI-H226, 48 h
[6] = tested on: HCT-116; assay: In-Vitro Testing SRB panel: Colon Cancer; assay type: cell-based; details: HCT-116, 48 h
[7] = tested on: MALM-3M; assay: In-Vitro Testing SRB panel: Melanoma; assay type: cell-based; details: 48 h
[8] = tested on: SK-MEL-2B; assay: In-Vitro Testing SRB panel: Melanoma; assay type: cell-based; details: 48 h
[9] = tested on: IGROV1; assay: In-Vitro Testing SRB panel: Ovarian Cancer; assay type: cell-based
[10] = tested on: SK-OV-3; assay: In-Vitro Testing SRB panel: Ovarian Cancer; assay type: cell-based; details: SK-OV-3, 48 h
[11] = tested on: ACHN; assay: In-Vitro Testing SRB panel: Renal Cancer; assay type: cell-based; details: 48 h
[12] = tested on: CARI-1; assay: In-Vitro Testing SRB panel: Renal Cancer; assay type: cell-based; details: 48 h
[13] = tested on: RXF 393; assay: In-Vitro Testing SRB panel: Renal Cancer; assay type: cell-based; details: RXF 393, 48 h
[14] = tested on: NCI/ADR-RES; assay: In-Vitro Testing SRB panel: Breast Cancer; assay type: cell-based; details: 48 h
[15] = tested on: MDA-MB-231/ATCC; assay: In-Vitro Testing SRB panel: Breast Cancer; assay type: cell-based
[16] = tested on: ERVX; details: 48 h
[17] = Homo sapiens, read-out: LC50 (the source's name)

## O=C(c1ccc([N+](=O)[O-])cc1)N1Cc2ccccc2C(c2ccccc2Cl)c2ccccc21 (stereo not drawn) [Compound 28, N-(4′-Nitrobenzoyl)-11-(2′-chlorophenyl)-5,6-dihydro-11H-dibenz[b,e]azepine]
[1]
  tumor growth: significantly inhibited tumor growth
[2]
  tumor growth: significantly inhibited tumor growth
[3]
  TGI: 2.99E−06 Molar
[3]; Homo sapiens
  GI50: 0.0909 µM
[3]; [17]
  CC50: > 100 µM
[3]; log10 conc −4.0 Molar
  Percent Growth: −3%
[3]; log10 conc −5.0 Molar
  Percent Growth: −11%
[3]; log10 conc −6.0 Molar
  Percent Growth: 10%
[3]; log10 conc −7.0 Molar
  Percent Growth: 49%
[3]; log10 conc −8.0 Molar
  Percent Growth: 66%
[4]; Homo sapiens
  GI50: 0.7 µM
[4]; [17]
  CC50: > 100 µM
[4]
  TGI: >1.00E−04 Molar
[4]; log10 conc −4.0 Molar
  Percent Growth: 24%
[4]; log10 conc −5.0 Molar
  Percent Growth: 24%
[4]; log10 conc −6.0 Molar
  Percent Growth: 44%
[4]; log10 conc −7.0 Molar
  Percent Growth: 82%
[4]; log10 conc −8.0 Molar
  Percent Growth: 109%
[5]; Homo sapiens
  GI50: 7.96 µM
[5]; [17]
  CC50: > 100 µM
[5]
  TGI: >1.00E−04 Molar
[5]; log10 conc −4.0 Molar
  Percent Growth: 33%
[5]; log10 conc −5.0 Molar
  Percent Growth: 48%
[5]; log10 conc −6.0 Molar
  Percent Growth: 66%
[5]; log10 conc −7.0 Molar
  Percent Growth: 83%
[5]; log10 conc −8.0 Molar
  Percent Growth: 90%
[6]
  TGI: >1.00E−04 Molar
[6]; log10 conc −4.0 Molar
  Percent Growth: 11%
[6]; log10 conc −5.0 Molar
  Percent Growth: 19%
[6]; log10 conc −6.0 Molar
  Percent Growth: 27%
[6]; log10 conc −7.0 Molar
  Percent Growth: 93%
[6]; log10 conc −8.0 Molar
  Percent Growth: 103%
[6]; Homo sapiens
  GI50: 0.447 µM
[6]; [17]
  CC50: > 100 µM
[7]; Homo sapiens
  GI50: 49.6 µM
[7]; Homo sapiens, MALM-3M, read-out: LC50 (the source's name)
  CC50: > 100 µM
[7]; MALM-3M
  TGI: >1.00E−04 Molar
[7]; MALM-3M, log10 conc −4.0 Molar
  Percent Growth: 39%
[7]; MALM-3M, log10 conc −5.0 Molar
  Percent Growth: 76%
[7]; MALM-3M, log10 conc −6.0 Molar
  Percent Growth: 79%
[7]; MALM-3M, log10 conc −7.0 Molar
  Percent Growth: 85%
[7]; MALM-3M, log10 conc −8.0 Molar
  Percent Growth: 92%
[8]; Homo sapiens
  GI50: > 100 µM
[8]; Homo sapiens, SK-MEL-2B, read-out: LC50 (the source's name)
  CC50: > 100 µM
[8]; SK-MEL-2B
  TGI: >1.00E−04 Molar
[8]; SK-MEL-2B, log10 conc −4.0 Molar
  Percent Growth: 50%
[8]; SK-MEL-2B, log10 conc −5.0 Molar
  Percent Growth: 56%
[8]; SK-MEL-2B, log10 conc −6.0 Molar
  Percent Growth: 72%
[8]; SK-MEL-2B, log10 conc −7.0 Molar
  Percent Growth: 97%
[8]; SK-MEL-2B, log10 conc −8.0 Molar
  Percent Growth: 39%
[9]; Homo sapiens, IGROV-1, 48 h
  GI50: 1.88 µM
[9]; Homo sapiens, IGROV-1, IGROV1, 48 h, read-out: LC50 (the source's name)
  CC50: > 100 µM
[9]; IGROV1, 48 h
  TGI: >1.00E−04 Molar
[9]; IGROV1, log10 conc −4.0 Molar, 48 h
  Percent Growth: 25%
[9]; IGROV1, log10 conc −5.0 Molar, 48 h
  Percent Growth: 34%
[9]; IGROV1, log10 conc −6.0 Molar, 48 h
  Percent Growth: 56%
[9]; IGROV1, log10 conc −7.0 Molar, 48 h
  Percent Growth: 97%
[9]; IGROV1, log10 conc −8.0 Molar, 48 h
  Percent Growth: 102%
[10]; Homo sapiens
  GI50: 8.31 µM
[10]; [17]
  CC50: > 100 µM
[10]
  TGI: >1.00E−04 Molar
[10]; log10 conc −4.0 Molar
  Percent Growth: 36%
[10]; log10 conc −5.0 Molar
  Percent Growth: 47%
[10]; log10 conc −6.0 Molar
  Percent Growth: 79%
[10]; log10 conc −7.0 Molar
  Percent Growth: 97%
[10]; log10 conc −8.0 Molar
  Percent Growth: 97%
[11]
  TGI: >1.00E−04 Molar
[11]; Homo sapiens
  GI50: 1.37 µM
[11]; [17]
  CC50: > 100 µM
[11]; log10 conc −4.0 Molar
  Percent Growth: 19%
[11]; log10 conc −5.0 Molar
  Percent Growth: 30%
[11]; log10 conc −6.0 Molar
  Percent Growth: 53%
[11]; log10 conc −7.0 Molar
  Percent Growth: 92%
[11]; log10 conc −8.0 Molar
  Percent Growth: 102%
[12]; CARI-1
  TGI: >1.00E−04 Molar
[12]; CARI-1, log10 conc −4.0 Molar
  Percent Growth: 22%
[12]; CARI-1, log10 conc −5.0 Molar
  Percent Growth: 40%
[12]; CARI-1, log10 conc −6.0 Molar
  Percent Growth: 61%
[12]; CARI-1, log10 conc −7.0 Molar
  Percent Growth: 91%
[12]; CARI-1, log10 conc −8.0 Molar
  Percent Growth: 94%
[12]; Homo sapiens
  GI50: 3.26 µM
[12]; Homo sapiens, CARI-1, read-out: LC50 (the source's name)
  CC50: > 100 µM
[13]; Homo sapiens
  GI50: 1.39 µM
[13]; [17]
  CC50: > 100 µM
[13]
  TGI: 7.75E−06 Molar
[13]; log10 conc −4.0 Molar
  Percent Growth: −12%
[13]; log10 conc −5.0 Molar
  Percent Growth: −7%
[13]; log10 conc −6.0 Molar
  Percent Growth: 60%
[13]; log10 conc −7.0 Molar
  Percent Growth: 98%
[13]; log10 conc −8.0 Molar
  Percent Growth: 99%
[14]
  TGI: >1.00E−04 Molar
[14]; Homo sapiens
  GI50: 3.22 µM
[14]; [17]
  CC50: > 100 µM
[14]; log10 conc −4.0 Molar
  Percent Growth: 20%
[14]; log10 conc −5.0 Molar
  Percent Growth: 27%
[14]; log10 conc −6.0 Molar
  Percent Growth: 74%
[14]; log10 conc −7.0 Molar
  Percent Growth: 105%
[14]; log10 conc −8.0 Molar
  Percent Growth: 97%
[15]; Homo sapiens, MDA-MB-231, 48 h
  GI50: 4.94 µM
[15]; Homo sapiens, MDA-MB-231/ATCC, 48 h, read-out: LC50 (the source's name)
  CC50: > 100 µM
[15]; MDA-MB-231/ATCC, 48 h
  TGI: >1.00E−04 Molar
[15]; MDA-MB-231/ATCC, log10 conc −4.0 Molar, 48 h
  Percent Growth: 22%
[15]; MDA-MB-231/ATCC, log10 conc −5.0 Molar, 48 h
  Percent Growth: 36%
[15]; MDA-MB-231/ATCC, log10 conc −6.0 Molar, 48 h
  Percent Growth: 72%
[15]; MDA-MB-231/ATCC, log10 conc −7.0 Molar, 48 h
  Percent Growth: 96%
[15]; MDA-MB-231/ATCC, log10 conc −8.0 Molar, 48 h
  Percent Growth: 103%
[16]; ERVX
  TGI: >1.00E−04 Molar
[16]; ERVX, log10 conc −4.0 Molar
  Percent Growth: 23%
[16]; ERVX, log10 conc −5.0 Molar
  Percent Growth: 24%
[16]; ERVX, log10 conc −6.0 Molar
  Percent Growth: 51%
[16]; ERVX, log10 conc −7.0 Molar
  Percent Growth: 93%
[16]; ERVX, log10 conc −8.0 Molar
  Percent Growth: 85%
[16]; Homo sapiens
  GI50: 1.13 µM
[16]; Homo sapiens, read-out: LC50
  CC50: > 100 µM
